Measurements: patent US9688681B2, “Heterocyclic compounds as pest control agents” (BAYER CROPSCIENCE AKTIENGESELLSCHAFT, priority 2013, dated 2017)
Like-named read-outs stand apart in the source and are kept apart here.

Tests used:
[1] = log P by HPLC on reversed-phase C18 columns (OECD Guideline 117); type: physicochemical; conditions: for logP[a]: HPLC RP C18, acidic range pH 2.7, 0.1% aqueous formic acid/acetonitrile; for logP[b]: HPLC RP C18, neutral range pH 7.8, 0.001 molar aqueous ammonium hydrogencarbonate/acetonitrile; for chromatographic logP: reversed-phase C18 HPLC column
[2] = test system: green peach aphid (Myzus persicae); conditions: application rate 20 ppm, after 6 days, bell pepper plants sprayed to runoff
Protocol: Myzus persicae—Spray Test
Solvent: 7 parts by weight of dimethylformamide
Emulsifier: alkylaryl polyglycol ether
To produce an appropriate active ingredient formulation, 1 part by weight of active ingredient is dissolved using the specified parts by weight of solvent and made up with water containing an emulsifier concentration of 1000 ppm until the desired concentration is attained. To produce further test concentrations, the preparation is diluted with emulsifier-containing water. If the addition of ammonium salts or/and penetrants is required, these are each added in a concentration of 1000 ppm to the formulation solution.
After 6 days, the kill in % is determined. 100% means that all the aphids have been killed; 0% means that no aphids have been killed.

[3] = test system: southern root-knot nematode (Meloidogyne incognita); conditions: application rate 20 ppm, after 14 days, lettuce in sand
Protocol: Meloidogvne incognita Test (MELGIN)
Solvent: 125.0 parts by weight of acetone
To produce an appropriate active ingredient formulation, 1 part by weight of active ingredient is mixed with the specified amounts of solvent and the concentrate is diluted to the desired concentration with water.
Vessels are filled with sand, active ingredient solution, an egg/larvae suspension of the southern root-knot nematode (Meloidogyne incognita) and lettuce seeds. The lettuce seeds germinate and the plants develop.
After 14 days, the nematicidal efficacy in % is determined by the formation of galls.

[4] = test system: green peach aphid (Myzus persicae); experiment: Myzus persicae spray test on Chinese cabbage leaf discs; type: in vivo; conditions: application rate 500 g/ha, after 6 days
Excerpt: Discs of Chinese cabbage leaves (Brassica pekinensis) infested by all stages of the green peach aphid (Myzus persicae) are sprayed with an active ingredient formulation of the desired concentration.

[5] = pH 2.7, HPLC RP C18, acidic range pH 2.7, 0.1% aqueous formic acid/acetonitrile, read-out: logP[a]
[6] = pH 7.8, HPLC RP C18, neutral range pH 7.8, 0.001 molar aqueous ammonium hydrogencarbonate/acetonitrile, read-out: logP[b]

chromatographic logP [1, 5]	chromatographic logP [1, 6]	SMILES	logP[a] [1]	logP[b] [1]	efficacy (kill) [2] [%]	nematicidal efficacy (formation of galls) [3] [%]	efficacy (aphids killed) [4] [%]
–	–	CSCC(C)n1cnc2nn(-c3cccnc3)cc2c1=O (centres unmarked) [compound 31]	1.36	1.40	95	–	–
–	–	CSCCn1cnc2nn(-c3cccnc3)cc2c1=O [compound 27]	1.13	1.19	90	–	–
–	–	O=c1c2cn(-c3cccnc3)nc2ncn1-c1ccc(Cl)cc1 [compound 14]	1.74	–	–	100	90
0.85	0.85	CC(C)n1cnc2nn(-c3ccnnc3)cc2c1=O [compound 38, 5-Isopropyl-2-pyridazin-4-yl-pyrazolo[3,4-d]pyrimidin-4-one]	–	–	–	–	90
1.06	1.12	CC(C)n1cnc2nn(-c3cccnc3)cc2c1=O [compound 15, 5-Isopropyl-2-(pyridin-3-yl)-2,5-dihydro-4H-pyrazolo[3,4-d]pyrimidin-4-one]	–	–	–	–	100
–	–	O=c1c2cn(-c3cccnc3)nc2ncn1-c1ccccc1 [compound 10]	1.40	–	–	–	90
1.72	1.7	CC(C)n1nnc2nn(-c3cccnc3)cc2c1=O [compound 36, 3-Isopropyl-6-(3-pyridyl)pyrazolo[3,4-d]triazin-4-one]	–	–	–	–	90
–	–	N#CC1(n2cnc3nn(-c4cccnc4)cc3c2=O)CC1 [compound 30]	0.82	0.85	–	–	100
–	–	O=c1c2cn(-c3cccnc3)nc2ncn1CC(F)F [compound 25]	0.91	0.96	–	–	100
